Assay results as given in ChEMBL document CHEMBL1201862, “PubChem BioAssay data set” (2004).
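A five-concentration, 48-hour dose response in 96-well plates underlies each endpoint, interpolated linearly between surrounding concentrations. At the GI50, growth is halved.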 The source made the active and inactive calls. No stated cut-off is given here; in the data, active = GI50 up to about 1.1 µM and inactive = higher.

How the values were obtained:
Assay in all cases: inhibition of tumour cell growth, NCI panel, 48 h
NCI/ADR-RES = system: NCI/ADR-RES
MDA-N = system: MDA-N
MOLT-4 = system: MOLT-4
OVCAR-3 = system: OVCAR-3
UACC-62 = system: UACC-62
UO-31 = system: UO-31
SK-MEL-28 = system: SK-MEL-28
UACC-257 = system: UACC-257
MDA-MB-231 = system: MDA-MB-231
SR = system: SR
HCT-116 = system: HCT-116
NCI-H522 = system: NCI-H522
COLO 205 = system: COLO 205
TK-10 = system: TK-10
SNB-75 = system: SNB-75
MDA-MB-435 = system: MDA-MB-435
K562 = system: K562
IGROV-1 = system: IGROV-1
Hs-578T = system: Hs-578T
RXF 393 = system: RXF 393

Compound | GI50 (NCI/ADR-RES) | GI50 (MDA-N) | GI50 (MOLT-4) | GI50 (OVCAR-3) | GI50 (UACC-62) | GI50 (UO-31) | GI50 (SK-MEL-28) | GI50 (UACC-257) | GI50 (MDA-MB-231) | GI50 (SR) | GI50 (HCT-116) | GI50 (NCI-H522) | GI50 (COLO 205) | GI50 (TK-10) | GI50 (SNB-75) | GI50 (MDA-MB-435) | GI50 (K562) | GI50 (IGROV-1) | GI50 (Hs-578T) | GI50 (RXF 393)
Cc1cn([C@H]2C[C@H](O)[C@@H](CO)O2)c(=O)nc1N | > 100 µM (inactive) | > 100 µM (inactive) | > 100 µM (inactive) | > 100 µM (inactive) | > 100 µM (inactive) | > 100 µM (inactive) | > 100 µM (inactive) | > 100 µM (inactive) | > 100 µM (inactive) | > 100 µM (inactive) | > 100 µM (inactive) | > 100 µM (inactive) | > 100 µM (inactive) | > 100 µM (inactive) | > 100 µM (inactive) | > 100 µM (inactive) | > 100 µM (inactive) | > 100 µM (inactive) | > 100 µM (inactive) | –
Cc1cc2c(O)nc(N)nc2nc1C | > 100 µM (inactive) | > 100 µM (inactive) | – | > 100 µM (inactive) | > 100 µM (inactive) | > 100 µM (inactive) | > 100 µM (inactive) | > 100 µM (inactive) | > 100 µM (inactive) | > 100 µM (inactive) | > 100 µM (inactive) | > 100 µM (inactive) | > 100 µM (inactive) | > 100 µM (inactive) | > 100 µM (inactive) | > 100 µM (inactive) | > 100 µM (inactive) | > 100 µM (inactive) | > 100 µM (inactive) | > 100 µM (inactive)
C=CCCC1(CC(Sc2ccccc2)P(=O)(c2ccccc2)c2ccccc2)OCCO1 (stereo not drawn) | > 10 µM (inactive) | > 10 µM (inactive) | > 10 µM (inactive) | > 10 µM (inactive) | > 10 µM (inactive) | > 10 µM (inactive) | > 10 µM (inactive) | > 10 µM (inactive) | > 10 µM (inactive) | > 10 µM (inactive) | > 10 µM (inactive) | – | > 10 µM (inactive) | > 10 µM (inactive) | – | > 10 µM (inactive) | > 10 µM (inactive) | > 10 µM (inactive) | > 10 µM (inactive) | > 10 µM (inactive)
CC(C)(C)C1CCC2c3c([nH]c4ccccc34)C3C(=O)N(c4ccc5c(c4)C(=O)c4ccccc4C5=O)C(=O)C3C2C1 (stereo not drawn) | > 100 µM (inactive) | > 100 µM (inactive) | > 100 µM (inactive) | > 100 µM (inactive) | > 100 µM (inactive) | – | > 100 µM (inactive) | > 100 µM (inactive) | > 100 µM (inactive) | > 100 µM (inactive) | > 100 µM (inactive) | > 100 µM (inactive) | > 100 µM (inactive) | > 100 µM (inactive) | – | > 100 µM (inactive) | > 100 µM (inactive) | > 100 µM (inactive) | > 100 µM (inactive) | > 100 µM (inactive)
O=c1c2cc([N+](=O)[O-])ccc2n2n1Cc1ccccc1CC2 | > 100 µM (inactive) | > 100 µM (inactive) | > 100 µM (inactive) | > 100 µM (inactive) | > 100 µM (inactive) | > 100 µM (inactive) | > 100 µM (inactive) | > 100 µM (inactive) | > 100 µM (inactive) | > 100 µM (inactive) | > 100 µM (inactive) | > 100 µM (inactive) | > 100 µM (inactive) | 38.1 µM (inactive) | – | > 100 µM (inactive) | > 100 µM (inactive) | > 100 µM (inactive) | 74.8 µM (inactive) | > 100 µM (inactive)
COC(=O)c1c(O)ccc2c1c1c(n2Cc2ccccc2)C(=O)c2ccccc2C1=O | 12.6 µM (inactive) | 20.1 µM (inactive) | 4.88 µM (inactive) | 16.7 µM (inactive) | – | 10.3 µM (inactive) | 17.5 µM (inactive) | 17.6 µM (inactive) | 16.2 µM (inactive) | 15.6 µM (inactive) | 14.2 µM (inactive) | 11 µM (inactive) | 1.8 µM (inactive) | 17.1 µM (inactive) | 15.6 µM (inactive) | 13 µM (inactive) | 11.8 µM (inactive) | 12.6 µM (inactive) | 18.5 µM (inactive) | 14.1 µM (inactive)
Cc1ccc(N2C(=O)C3c4[nH]c5ccccc5c4C4CCC(C(C)(C)C)CC4C3C2=O)cc1 (stereo not drawn) | 12.8 µM (inactive) | 16.8 µM (inactive) | 3.17 µM (inactive) | 3.03 µM (inactive) | 16.4 µM (inactive) | 14.9 µM (inactive) | 18.3 µM (inactive) | 13.3 µM (inactive) | 3.78 µM (inactive) | 6.05 µM (inactive) | 11.1 µM (inactive) | 11.2 µM (inactive) | 8.95 µM (inactive) | 6 µM (inactive) | – | 16.8 µM (inactive) | 5.51 µM (inactive) | 11.4 µM (inactive) | 4.1 µM (inactive) | 10.4 µM (inactive)
CCn1c(=O)c2c3cc(O)ccc3oc2c2ccc(O)cc21 | 37.8 µM (inactive) | 30 µM (inactive) | 16.1 µM (inactive) | 29.9 µM (inactive) | 20.3 µM (inactive) | 19.3 µM (inactive) | 35.8 µM (inactive) | 76.6 µM (inactive) | 25.2 µM (inactive) | 18.2 µM (inactive) | – | 19.3 µM (inactive) | 17.5 µM (inactive) | 24.8 µM (inactive) | 22.9 µM (inactive) | 27 µM (inactive) | 25.9 µM (inactive) | 42.6 µM (inactive) | 5.46 µM (inactive) | 30.1 µM (inactive)
CCc1c(-c2ccc(OC)cc2)c(=O)oc2cc(O)ccc12 | 22.1 µM (inactive) | 28.1 µM (inactive) | 16 µM (inactive) | 28.4 µM (inactive) | 19.4 µM (inactive) | 19.9 µM (inactive) | 36.7 µM (inactive) | 25.9 µM (inactive) | 57.5 µM (inactive) | 16.7 µM (inactive) | 36.5 µM (inactive) | 29.5 µM (inactive) | 28.2 µM (inactive) | – | 73.3 µM (inactive) | 27.6 µM (inactive) | 29.8 µM (inactive) | 42.4 µM (inactive) | 30.7 µM (inactive) | 54.5 µM (inactive)
O=C1Cc2c(-c3ccccc3)cc(-c3ccc4ccccc4c3)nc2-c2ccccc2N1 | 13.2 µM (inactive) | 8.53 µM (inactive) | > 100 µM (inactive) | 8.05 µM (inactive) | 10.7 µM (inactive) | 17.3 µM (inactive) | > 100 µM (inactive) | 22.3 µM (inactive) | 5.79 µM (inactive) | 39.3 µM (inactive) | 8.45 µM (inactive) | 3.25 µM (inactive) | 31.9 µM (inactive) | 12.3 µM (inactive) | 0.307 µM (active) | 17.2 µM (inactive) | 2.39 µM (inactive) | 1.93 µM (inactive) | 2.96 µM (inactive) | 2.9 µM (inactive)
C/C(=N\NC(=S)N1CCCCC1)c1cccc(C)n1 | < 0.01 µM (active) | 0.0871 µM (active) | < 0.01 µM (active) | < 0.01 µM (active) | 0.0318 µM (active) | 0.0414 µM (active) | 0.0968 µM (active) | < 0.01 µM (active) | < 0.01 µM (active) | < 0.0173 µM (active) | < 0.01 µM (active) | < 0.01 µM (active) | < 0.01 µM (active) | – | 0.196 µM (active) | 0.0944 µM (active) | < 0.01 µM (active) | < 0.01 µM (active) | 22.3 µM (inactive) | 0.238 µM (active)
O=C1NC(N2CCOCC2)=N/C1=C\c1cccs1 | > 100 µM (inactive) | > 100 µM (inactive) | > 100 µM (inactive) | > 100 µM (inactive) | > 100 µM (inactive) | > 100 µM (inactive) | > 100 µM (inactive) | > 100 µM (inactive) | > 100 µM (inactive) | > 100 µM (inactive) | > 100 µM (inactive) | > 100 µM (inactive) | > 100 µM (inactive) | > 100 µM (inactive) | 30.2 µM (inactive) | > 100 µM (inactive) | – | > 100 µM (inactive) | > 100 µM (inactive) | > 100 µM (inactive)
Nc1nc(=S)n(-c2ccc(Cl)cc2)c2nc3ccccc3cc12 | > 100 µM (inactive) | 90.8 µM (inactive) | – | 45 µM (inactive) | 40.9 µM (inactive) | 33.6 µM (inactive) | > 100 µM (inactive) | > 100 µM (inactive) | 60.5 µM (inactive) | 16.1 µM (inactive) | 40.7 µM (inactive) | 45.3 µM (inactive) | 36 µM (inactive) | 28.7 µM (inactive) | 43.5 µM (inactive) | 80.4 µM (inactive) | 66.7 µM (inactive) | 1.69 µM (inactive) | 83.2 µM (inactive) | 57.9 µM (inactive)
CCC(C)N1CN(c2ccccc2)C2(CCN(CCCC(=O)c3ccc(F)cc3)CC2)C1=O (stereo not drawn) | 83 µM (inactive) | 11.7 µM (inactive) | 3.92 µM (inactive) | 11.9 µM (inactive) | 16.6 µM (inactive) | 4.17 µM (inactive) | 17.4 µM (inactive) | – | 10.8 µM (inactive) | 5.98 µM (inactive) | 0.697 µM (active) | 7.85 µM (inactive) | 0.193 µM (active) | 4.85 µM (inactive) | 19.5 µM (inactive) | 13.9 µM (inactive) | 9.18 µM (inactive) | 3.02 µM (inactive) | 13.7 µM (inactive) | 14.2 µM (inactive)
C=CC1CN(C(=O)OCC)N(C(=O)OCC)C1CCc1ccccc1 (stereo not drawn) | 85.1 µM (inactive) | > 100 µM (inactive) | 31.2 µM (inactive) | – | > 100 µM (inactive) | 74.1 µM (inactive) | > 100 µM (inactive) | > 100 µM (inactive) | > 100 µM (inactive) | 65.9 µM (inactive) | 67.1 µM (inactive) | 39.3 µM (inactive) | 71.6 µM (inactive) | > 100 µM (inactive) | 68.9 µM (inactive) | > 100 µM (inactive) | 50.8 µM (inactive) | 81.8 µM (inactive) | > 100 µM (inactive) | –
